Assay results taken from BindingDB's records for doi:10.1016/j.bmcl.2006.12.014 (The Genomics Institute of The Novartis Research Foundation, 2007).

The molecules below were run against Cathepsin Z (Homo sapiens) (UniProt Q9UBR2) (assay: Inhibition of human recombinant cathepsin X).
Sequence of Cathepsin Z (Homo sapiens) (Q9UBR2 whole entry, looked up): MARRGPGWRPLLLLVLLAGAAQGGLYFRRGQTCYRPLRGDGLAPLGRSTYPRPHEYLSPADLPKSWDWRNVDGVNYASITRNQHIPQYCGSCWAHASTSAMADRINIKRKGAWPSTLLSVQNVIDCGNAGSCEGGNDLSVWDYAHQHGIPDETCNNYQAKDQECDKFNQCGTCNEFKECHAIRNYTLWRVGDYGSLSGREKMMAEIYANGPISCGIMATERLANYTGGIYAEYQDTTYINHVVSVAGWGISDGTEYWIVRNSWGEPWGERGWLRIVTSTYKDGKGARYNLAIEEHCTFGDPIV

Which IC50 does the source give for `O=C1O[C@@H]2CN1CC[C@@H]2OCc1ccccc1` [(1R,2S)-2-(benzyloxy)-7-oxa-5-aza-bicyclo[3.2.1]octan-6-one] here?
Its IC50 is 547 nM.

With `CC(C)CO[C@H]1CCN2C[C@H]1OC2=O` [(1R,2S)-2-isobutoxy-7-oxa-5-aza-bicyclo[3.2.1]octan-6-one] as the molecule, how does the IC50 read?
The IC50 was 1100 nM.

For `O=C1O[C@@H]2CN1CC[C@@H]2Oc1ccccc1` [(1R,2S)-2-phenoxy-7-oxa-5-aza-bicyclo[3.2.1]octan-6-one], which IC50 is on record?
Its IC50 is 326 nM.

With `S=C1O[C@@H]2CN1CC[C@@H]2Oc1ccccc1` [(1R,2S)-2-phenoxy-7-oxa-5-aza-bicyclo[3.2.1]octane-6-thione] as the molecule, how does the IC50 read?
Its IC50 is 7150 nM.

Target: Cathepsin Z (Homo sapiens) (UniProt Q9UBR2)
Experiment: Inhibition of human recombinant cathepsin X
Remark: another data set of the same source

For `Cc1cccc(O[C@H]2CCN3C[C@@H]2OC3=O)c1C` (racemic) [rac-trans4-(2,3-dimethylphenoxy)-6-oxa-1-aza-bicyclo[3.2.1]octan-7-one], which IC50 is on record?
The IC50 was 553 nM.

Which IC50 does the source give for `Cc1cccc(O[C@H]2CCN3C[C@H]2OC3=O)c1C` (relative stereo) [cis-4-(2,3-dimethylphenoxy)-6-oxa-1-aza-bicyclo[3.2.1]octan-7-one] here?
Its IC50 is 197 nM.

Which IC50 does the source give for `O=C1O[C@H]2CN1CC[C@@H]2Br` [(1S,2S)-2-bromo-7-oxa-5-aza-bicyclo[3.2.1]octan-6-one] here?
Its IC50 is over 10000 nM.
